Molecular target: FXR (Homo sapiens (Human), UniProt Q96RI1)
Assay: FXR EC50 (FXR agonist activity reported with each example)
Assay type: cell-based

Sequence of FXR (Q96RI1 262-486): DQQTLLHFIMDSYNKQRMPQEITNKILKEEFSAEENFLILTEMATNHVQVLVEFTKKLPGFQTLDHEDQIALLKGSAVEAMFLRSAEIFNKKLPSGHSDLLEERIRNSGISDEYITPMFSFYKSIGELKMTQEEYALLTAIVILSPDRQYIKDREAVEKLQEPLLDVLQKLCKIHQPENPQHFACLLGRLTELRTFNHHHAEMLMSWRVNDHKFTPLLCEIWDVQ

Row | Compound | EC50 [nM]
1 | O=C(O)c1cc(F)cc2nc(OCC34CCC(/C=C/c5c(-c6c(Cl)cncc6Cl)noc5C5CC5)(CC3)CC4)sc12 [Example 469, (E)-2-((4-(2-(5-cyclopropyl-3-(3,5-dichloropyridin-4-yl)isoxazol-4-yl)vinyl)bicyclo[2.2.2]octan-1-yl)methoxy)-5-fluorobenzo[d]thiazole-7-carboxylic acid] | 190
2 | COc1cc(OCC23CCC(/C=C/c4c(-c5c(Cl)cncc5Cl)noc4C4CC4)(CC2)CO3)cc(C(=O)O)c1 [Example 470, (E)-3-((4-(2-(5-cyclopropyl-3-(3,5-dichloropyridin-4-yl)isoxazol-4-yl)vinyl)-2-oxabicyclo[2.2.2]octan-1-yl)methoxy)-5-methoxybenzoic acid] | 110
3 | O=C(O)c1cc(OC(F)F)c2cc(OCC34CCC(OCc5c(-c6c(Cl)cncc6Cl)noc5C5CC5)(CC3)CO4)ccc2n1 [Example 471, 6-((4-((5-cyclopropyl-3-(3,5-dichloropyridin-4-yl)isoxazol-4-yl)methoxy)-2-oxabicyclo[2.2.2]octan-1-yl)methoxy)-4-(difluoromethoxy)quinoline-2-carboxylic acid] | 200
4 | O=C(O)c1cc(OC(F)F)c2cc(OCC34CCC(/C=C/c5c(-c6c(Cl)cncc6Cl)noc5C5CC5)(CC3)OC4)ccc2n1 [Example 472, (E)-6-((1-(2-(5-cyclopropyl-3-(3,5-dichloropyridin-4-yl)isoxazol-4-yl)vinyl)-2-oxabicyclo[2.2.2]octan-4-yl)methoxy)-4-(difluoromethoxy)quinoline-2-carboxylic acid] | 290
5 | O=C(O)c1cc(OCC23CCC(/C=C/c4c(-c5c(Cl)cncc5Cl)noc4C4CC4)(CC2)OC3)cc(C(F)(F)F)c1 [Example 473, (E)-3-((1-(2-(5-cyclopropyl-3-(3,5-dichloropyridin-4-yl)isoxazol-4-yl)vinyl)-2-oxabicyclo[2.2.2]octan-4-yl)methoxy)-5-(trifluoromethyl)benzoic acid] | 320
6 | COc1cc(OCC23CCC(/C=C/c4c(-c5c(Cl)cncc5Cl)noc4C4CC4)(CC2)OC3)cc(C(=O)O)c1 [Example 474, (E)-3-((1-(2-(5-cyclopropyl-3-(3,5-dichloropyridin-4-yl)isoxazol-4-yl)vinyl)-2-oxabicyclo[2.2.2]octan-4-yl)methoxy)-5-methoxybenzoic acid] | 490
7 | CC(C)(C#N)c1ccc(C23CCC(/C=C/c4c(-c5c(Cl)cncc5Cl)noc4C4CC4)(CC2)CO3)cc1 [Example 475, (E)-2-(4-(4-(2-(5-cyclopropyl-3-(3,5-dichloropyridin-4-yl)isoxazol-4-yl)vinyl)-2-oxabicyclo[2.2.2]octan-1-yl)phenyl)-2-methylpropanenitrile] | 1500
8 | CC(C)(C#N)c1ccc(C23CCC(/C=C/c4c(-c5ccccc5C(F)(F)F)noc4C4CC4)(CC2)CO3)cc1 [Example 476, (E)-2-(4-(4-(2-(5-cyclopropyl-3-(2-(trifluoromethyl)phenyl)isoxazol-4-yl)vinyl)-2-oxabicyclo[2.2.2]octan-1-yl)phenyl)-2-methylpropanenitrile] | 690
9 | CC(C)(C(=O)O)c1ccc(C23CCC(/C=C/c4c(-c5ccccc5C(F)(F)F)noc4C4CC4)(CC2)CO3)cc1 [Example 477, (E)-2-(4-(4-(2-(5-cyclopropyl-3-(2-(trifluoromethyl)phenyl)isoxazol-4-yl)vinyl)-2-oxabicyclo[2.2.2]octan-1-yl)phenyl)-2-methylpropanoic acid] | 1500
10 | O=C(O)c1cc(-c2noc(C34CCC(/C=C/c5c(-c6c(Cl)cncc6Cl)noc5C5CC5)(CC3)CO4)n2)cc(C(F)(F)F)c1 [Example 478, (E)-3-(5-(4-(2-(5-cyclopropyl-3-(3,5-dichloropyridin-4-yl)isoxazol-4-yl)vinyl)-2-oxabicyclo[2.2.2]octan-1-yl)-1,2,4-oxadiazol-3-yl)-5-(trifluoromethyl)benzoic acid] | 120
11 | O=C(O)c1cc(OC(F)F)cc(-c2noc(C34CCC(/C=C/c5c(-c6c(Cl)cncc6Cl)noc5C5CC5)(CC3)CO4)n2)c1 [Example 479, (E)-3-(5-(4-(2-(5-cyclopropyl-3-(3,5-dichloropyridin-4-yl)isoxazol-4-yl)vinyl)-2-oxabicyclo[2.2.2]octan-1-yl)-1,2,4-oxadiazol-3-yl)-5-(difluoromethoxy)benzoic acid] | 360
12 | CC(C)(C(N)=O)c1ccc(C23CCC(/C=C/c4c(-c5ccccc5C(F)(F)F)noc4C4CC4)(CC2)CO3)cc1 [Example 480, (E)-2-(4-(4-(2-(5-cyclopropyl-3-(2-(trifluoromethyl)phenyl)isoxazol-4-yl)vinyl)-2-oxabicyclo[2.2.2]octan-1-yl)phenyl)-2-methylpropanamide] | 1000
13 | CC(C)(C(N)=O)c1ccc(C23CCC(/C=C/c4c(-c5c(Cl)cncc5Cl)noc4C4CC4)(CC2)CO3)cc1 [Example 481, (E)-2-(4-(4-(2-(5-cyclopropyl-3-(3,5-dichloropyridin-4-yl)isoxazol-4-yl)vinyl)-2-oxabicyclo[2.2.2]octan-1-yl)phenyl)-2-methylpropanamide] | 510
14 | CC(C)(C(=O)O)c1ccc(C23CCC(/C=C/c4c(-c5c(Cl)cncc5Cl)noc4C4CC4)(CC2)CO3)cc1 [Example 482, (E)-2-(4-(4-(2-(5-cyclopropyl-3-(3,5-dichloropyridin-4-yl)isoxazol-4-yl)vinyl)-2-oxabicyclo[2.2.2]octan-1-yl)phenyl)-2-methylpropanoic acid] | 950
15 | COc1cncc(Cl)c1-c1noc(C2CC2)c1/C=C/C12CCC(c3ccc(C(C)(C)C(=O)O)cc3)(CC1)OC2 [Example 483, (E)-2-(4-(4-(2-(3-(3-chloro-5-methoxypyridin-4-yl)-5-cyclopropylisoxazol-4-yl)vinyl)-2-oxabicyclo[2.2.2]octan-1-yl)phenyl)-2-methylpropanoic acid] | 4500
16 | O=C(O)c1cccc(OCC23CCC(COCc4c(-c5c(Cl)cccc5Cl)noc4C4CC4)(CC2)CC3)c1 [Example 484, 3-((4-(((5-cyclopropyl-3-(2,6-dichlorophenyl)isoxazol-4-yl)methoxy)methyl)bicyclo[2.2.2]octan-1-yl)methoxy)benzoic acid] | 200
17 | O=C(O)c1cc(-c2noc(C34CCC(COCc5c(-c6c(Cl)cncc6Cl)noc5C5CC5)(CC3)CC4)n2)cc(C(F)(F)F)c1 [Example 485, 3-(5-(4-(((5-cyclopropyl-3-(3,5-dichloropyridin-4-yl)isoxazol-4-yl)methoxy)methyl)bicyclo[2.2.2]octan-1-yl)-1,2,4-oxadiazol-3-yl)-5-(trifluoromethyl)benzoic acid] | 380
18 | O=C(O)c1ccc(F)c(-c2noc(C34CCC(COCc5c(-c6c(Cl)cncc6Cl)noc5C5CC5)(CC3)CC4)n2)c1 [Example 486, 3-(5-(4-(((5-cyclopropyl-3-(3,5-dichloropyridin-4-yl)isoxazol-4-yl)methoxy)methyl)bicyclo[2.2.2]octan-1-yl)-1,2,4-oxadiazol-3-yl)-4-fluorobenzoic acid] | 2700
19 | COc1ccc(C(=O)O)cc1-c1noc(C23CCC(COCc4c(-c5c(Cl)cncc5Cl)noc4C4CC4)(CC2)CC3)n1 [Example 487, 3-(5-(4-(((5-cyclopropyl-3-(3,5-dichloropyridin-4-yl)isoxazol-4-yl)methoxy)methyl)bicyclo[2.2.2]octan-1-yl)-1,2,4-oxadiazol-3-yl)-4-methoxybenzoic acid] | 5400
20 | N#Cc1cc(C(F)(F)F)cc(C23CCC(COCc4c(-c5c(Cl)cncc5Cl)noc4C4CC4)(CC2)CO3)c1 [Example 488, 3-(4-(((5-cyclopropyl-3-(3,5-dichloropyridin-4-yl)isoxazol-4-yl)methoxy)methyl)-2-oxabicyclo[2.2.2]octan-1-yl)-5-(trifluoromethyl)benzonitrile] | 2400
21 | NC(=O)c1cc(C(F)(F)F)cc(C23CCC(COCc4c(-c5c(Cl)cncc5Cl)noc4C4CC4)(CC2)CO3)c1 [Example 489, 3-(4-(((5-cyclopropyl-3-(3,5-dichloropyridin-4-yl)isoxazol-4-yl)methoxy)methyl)-2-oxabicyclo[2.2.2]octan-1-yl)-5-(trifluoromethyl)benzamide] | 1400
22 | O=C(O)c1cc(C(F)(F)F)cc(C23CCC(COCc4c(-c5c(Cl)cncc5Cl)noc4C4CC4)(CC2)CO3)c1 [Example 490, 3-(4-(((5-cyclopropyl-3-(3,5-dichloropyridin-4-yl)isoxazol-4-yl)methoxy)methyl)-2-oxabicyclo[2.2.2]octan-1-yl)-5-(trifluoromethyl)benzoic acid] | 96
23 | O=C(O)c1cc(C(F)(F)F)cc(C23CCC(/C=C/c4c(-c5c(Cl)cncc5Cl)noc4C4CC4)(CC2)CO3)c1 [Example 491, (E)-3-(4-(2-(5-cyclopropyl-3-(3,5-dichloropyridin-4-yl)isoxazol-4-yl)vinyl)-2-oxabicyclo[2.2.2]octan-1-yl)-5-(trifluoromethyl)benzoic acid] | 26
24 | COc1ccc(-c2noc(C34CCC(/C=C/c5c(-c6c(Cl)cncc6Cl)noc5C5CC5)(CC3)CO4)n2)cc1C(=O)O [Example 492, (E)-5-(5-(4-(2-(5-cyclopropyl-3-(3,5-dichloropyridin-4-yl)isoxazol-4-yl)vinyl)-2-oxabicyclo[2.2.2]octan-1-yl)-1,2,4-oxadiazol-3-yl)-2-methoxybenzoic acid] | 250
25 | COc1cc(OCC23CCC(/C=C/c4c(-c5c(Cl)cncc5Cl)noc4C4CC4)(CC2)CC3)cc(C(=O)O)c1 [Example 493, (E)-3-((4-(2-(5-cyclopropyl-3-(3,5-dichloropyridin-4-yl)isoxazol-4-yl)vinyl)bicyclo[2.2.2]octan-1-yl)methoxy)-5-methoxybenzoic acid] | 18
26 | O=C(O)c1cc(-c2noc(C34CCC(/C=C/c5c(-c6c(Cl)cncc6Cl)noc5C5CC5)(CC3)OC4)n2)cc(C(F)(F)F)c1 [Example 494, (E)-3-(5-(1-(2-(5-cyclopropyl-3-(3,5-dichloropyridin-4-yl)isoxazol-4-yl)vinyl)-2-oxabicyclo[2.2.2]octan-4-yl)-1,2,4-oxadiazol-3-yl)-5-(trifluoromethyl)benzoic acid] | 130
27 | O=C(O)c1cccc(-c2noc(C34CCC(/C=C/c5c(-c6c(Cl)cncc6Cl)noc5C5CC5)(CC3)OC4)n2)c1 [Example 495, (E)-3-(5-(1-(2-(5-cyclopropyl-3-(3,5-dichloropyridin-4-yl)isoxazol-4-yl)vinyl)-2-oxabicyclo[2.2.2]octan-4-yl)-1,2,4-oxadiazol-3-yl)benzoic acid] | 1700

Source: patent US10730863B2, “Bridged bicyclic compounds as farnesoid X receptor modulators” (BRISTOL-MYERS SQUIBB COMPANY, priority 2017, dated 2020)
